In publication PMC12040169 (PLOS Biology, 2025):

Experiment: in vitro
Conditions: human, hela cells, % viability

| Compound | viability at 28.5 h, 10 µM |
| --- | --- |
| O=C(CSc1ncn[nH]1)Nc1ncccn1 [CBK058488] | 105% |
| C(#Cc1ccc(-c2nc(-c3ccc(Sc4ccccc4)cc3)c(-c3ccc(Sc4ccccc4)cc3)[nH]2)cc1)c1ccccc1 [CBK261954] | 95.3% |
| Cc1ccc(-c2nnc(N3CCN(C(=O)CSc4nc[nH]n4)CC3)c3ccccc23)cc1 [CBK266652] | 107% |
| COc1cc(C#N)ccc1OCc1cc(C)on1 [CBK002581] | 86.1% |
| O=[N+]([O-])c1ccc(OCC(O)CN2CCCN(c3nc4ccc(Cl)cc4s3)CC2)cc1 (stereo not drawn) [CBK074647] | 85.9% |
| CC1CC1C(=O)N1CCCC(c2nn(C)c3ncccc23)C1 (stereo not drawn) [CBK282167] | 85.7% |
| CCc1c(-c2cccc(C(=O)N3CCS(=O)(=O)CC3)c2)cnn1C [CBK307487] | 75.3% |
| O=c1n(C(c2ccccc2)c2ccccc2)ccn1S(=O)(=O)c1ccc2ccccc2c1 [CBK106623] | 94.6% |
| Cn1nccc1C(=O)N1CCCC(c2cc3cccnc3[nH]2)C1 (stereo not drawn) [CBK284929] | 92.7% |
| Cc1nc(CN(C)C2CCN(Cc3ccc4c(c3)CCC4)C2)no1 (stereo not drawn) [CBK304052] | 76.5% |
| COc1ccc(S(=O)(=O)NCCO)cc1-c1nnc2c3ccccc3c(C)nn12 [CBK266933] | 91.9% |
| Cc1cc(C)n(C2CCN(Cc3cnn(C4CCCCC4)c3)CC2)n1 [CBK281804] | 89.2% |
| Nc1ncc(-c2cccc(-c3ccccc3)c2)nc1N1CCN(CCO)CC1 [CBK063410] | 113% |
| Cc1nc(COc2ccc(F)cc2)sc1C(=O)O [CBK305074] | 98% |
| CCN1CCN(c2ccc3nnc(C(C)C)n3n2)CC1 [CBK287974] | 88.3% |
| O=C(c1ccccc1F)N1CCCC(c2cc3ncccc3cn2)C1 (stereo not drawn) [CBK284710] | 83.3% |
| COc1c(C)cc(S(=O)(=O)NCCN2CCOCC2)c(C)c1C [CBK269893] | 94.1% |
| CC(C)(C)c1ccc(-c2nc(Nc3cccc(C(=O)O)c3)c3ccccc3n2)cc1 [CBK265229C] | 96.6% |
| O=C(c1cncnc1)N1CCC2(CCN(Cc3ccccc3)CC2)C1 [CBK136782] | 101% |
| NS(=O)(=O)c1ccc(CCNCc2ccc3c(c2)OCO3)cc1 [CBK269819C] | 88.5% |
| Cc1ccc(-c2nnc(SCc3cccc4nsnc34)n2C)cc1 [CBK269706] | 92.7% |
| Cc1cc(CC(=O)N2CCN(c3ncccn3)CC2)on1 [CBK144507] | 90% |
| Cc1c(C(=O)N2CC(n3cc(C(C)O)nn3)C2)sc2ccc(F)cc12 (stereo not drawn) [CBK305446] | 94.5% |

| Compound | viability at 28.5 h, 10 µM |
| --- | --- |
| O=C(O)CCN1CCCC2(CCN(C(=O)Cc3c[nH]c4ccccc34)C2)C1 (stereo not drawn) [CBK137138] | 114% |
| CCN1CCN(C(=O)Cc2cccnc2)CC1 [CBK200375] | 92.3% |
| CC(=O)c1ccccc1NC(C#N)c1ccccc1 (stereo not drawn) [CBK057758] | 99.6% |
| CCn1cc(C(=O)O)c(=O)c2cnc(N3CCNCC3)nc21 [CBK041585] | 90.8% |
| CCN(CC)C(=O)N1CCN(CCC#N)CC1 [CBK027538] | 94.9% |
| O=c1[nH]c2ncc(-c3ccco3)nc2n1Cc1cccs1 [CBK064438] | 103% |
| CCn1cc(C(=O)NN)c(=O)c2cc(F)c(NN)cc21 [CBK262735] | 79.1% |
| NCCCOc1nc2ccccc2nc1N1CCCC1 [CBK115287] | 95.8% |
| Cc1cc(C)n(-c2cccc(C(=O)NCCn3ccnc3)c2)n1 [CBK281585] | 109% |
| COc1cccc(CN2CCC(Cc3ccccc3)CC2)c1 [CBK126436] | 103% |
| COc1ccc(CCCC(=O)Nc2cc(N3CCNCC3)nc(SC)n2)cc1OC [CBK050261T] | 101% |
| NNC(=O)CSc1nnc2ccc(C(F)(F)F)cn12 [CBK006897] | 90.3% |
| COc1cc2c(cc1OC)C(C)N(S(=O)(=O)c1cn(C)cn1)CC2 (stereo not drawn) [CBK057314] | 112% |
| Cc1cc(NC(=O)CCN2CCCCC2)no1 [CBK017079] | 99% |
| CCOC(=O)Cn1ccc2ccnc(-c3cccs3)c21 [CBK285200] | 107% |
| Cc1noc(C)c1CC(=O)NCC(C)(C)N1CCCCC1 [CBK281863] | 90.3% |
| NS(=O)(=O)c1ccc(N2N=C(c3ccccc3)CC2c2ccccc2)cc1 (stereo not drawn) [CBK261511] | 95.9% |
| FC(F)(F)c1nc2ccccc2nc1SCc1cccs1 [CBK103728] | 105% |
| COc1ccc(-c2csc(Nc3cccc(C(=O)O)c3)n2)cc1 [CBK286924] | 86.7% |
| Cc1ccc2nc(/C(C#N)=C/c3ccc(-c4ccc(S(N)(=O)=O)cc4)o3)[nH]c2c1 [CBK266386] | 94% |
| COc1ccc(Oc2nccnc2N2CCN(CCOc3ccccc3)CC2)cc1OC [CBK083061T] | 86.3% |
| COc1ccccc1NS(=O)(=O)c1cc(S(=O)(=O)Nc2ccccc2OC)c(C)cc1C [CBK261493] | 92% |
| CC1CCN(CC(O)c2ccc3c(c2)CCN3C(=O)C2CC2)CC1 (stereo not drawn) [CBK282927] | 102% |

| Compound | viability at 28.5 h, 10 µM |
| --- | --- |
| Cc1cccc(N2CCN(CC(=O)Nc3ccc(S(N)(=O)=O)cc3)CC2)c1C [CBK269369] | 96.8% |
| O=C(O)CNC(=O)/C(=C\c1ccccc1F)NC(=O)c1ccccc1 [CBK263961] | 96.5% |
| CC1=C[C@@H](CO)[C@H](C(C)C)C[C@H]1CC(=O)N1CCN(CCO)CC1 [CBK289217] | 85.7% |
| CC1CCN(S(=O)(=O)c2cccc(S(=O)(=O)c3cccc(S(=O)(=O)N4CCC(C)CC4)c3)c2)CC1 [CBK261731] | 90% |
| O=C1c2cccc3cccc(c23)C(=O)N1CCN1CCN(CC(O)COc2ccccc2)CC1 (stereo not drawn) [CBK266255] | 97.4% |
| Cc1cc(C)nc(NS(=O)(=O)c2ccc(Nc3ncnc(N)c3[N+](=O)[O-])cc2)n1 [CBK267217] | 96.6% |
| COc1cc(F)ccc1-c1ccnc2[nH]c(=O)ccc12 [CBK073727] | 74.2% |
| FC(F)(F)c1cc(-c2cn3ccnc3c(Nc3ccc4[nH]ccc4c3)n2)cc(C(F)(F)F)c1 [CBK066356] | 91.7% |
| Cc1cc(COc2nc3ccccc3nc2NC(C)C(C)C)no1 (stereo not drawn) [CBK174007] | 117% |
| Cc1cc2c(s1)c1cnn(CC(=O)NC(C)C)c(=O)c1n2C [CBK284155] | 79.7% |
| Cc1c(C(=O)N2CCC(N3CCSCC3)CC2)[nH]c2c(F)cccc12 [CBK307065] | 96.8% |
| O=C(CSC1c2ccccc2Oc2ccccc21)Nc1cccc(C(=O)O)c1 [CBK266566] | 97.9% |
| COc1ccc(Cl)cc1-c1noc(Cn2nc(C)c(Cl)c2C)n1 [CBK269813] | 92.1% |
| Cc1cc(Cl)ccc1CNS(=O)(=O)c1cccs1 [CBK044714] | 97% |
| O=C(NCCCO)Nc1ccc2nc(-c3ccco3)c(-c3ccco3)nc2c1 [CBK265161] | 92.4% |
| CC1CCN(CC(=O)Nc2sc3c(c2C(=O)NCc2ccccc2)CCCC3)CC1 [CBK268387] | 107% |
| Nc1nnc(C(F)(F)F)o1 [CBK023457] | 113% |
| CCNC(=O)COc1ccc(C=Cc2nc(-c3ccccc3)c(C(=O)O)s2)cc1OCC [CBK296644] | 94.6% |
| O=C(/C=C/c1c(Cl)cccc1Cl)Nc1ccc(S(=O)(=O)Nc2ncccn2)cc1 [CBK265490] | 98.8% |
| CCCNC(=O)Cn1cnc2sc(C)c(C)c2c1=O [CBK305863] | 88.8% |
| CC(=O)Nc1ccc(C(=O)N2CCCC(c3cccc(Cc4ccc(Cl)cc4)n3)C2)cc1 (stereo not drawn) [CBK286134] | 99.9% |
| CN1CCN(C(=O)c2[nH]c3ccccc3c2NS(=O)(=O)/C=C/c2ccccc2)CC1 [CBK050047] | 106% |
| Cc1ccc(C(=O)Nc2nnn(C)n2)c(Cl)c1 [CBK287856] | 97.4% |

| Compound | viability at 28.5 h, 10 µM |
| --- | --- |
| O=C(NCCN1CCOCC1)C1CC2CCC1C2 (stereo not drawn) [CBK026764] | 115% |
| CC(C)(C)n1cc2c(n1)[C@H]1CN(C(=O)CN3CCCC3=O)C[C@H]1CC2 [CBK283401] | 89.2% |
| CC(Oc1ccccc1)C(=O)NCCN1CCOCC1 (stereo not drawn) [CBK263812] | 94.1% |
| O=C(C1CCCC1)N1CCCC(c2cc3cccnc3[nH]2)C1 (stereo not drawn) [CBK284979] | 105% |
| O=C(NCCOc1ccccc1Cl)NC(=O)C1CCN(CCOc2ccc(Br)cc2)CC1 [CBK034897] | 84.6% |
| CSc1ccc(-c2nccnc2OCCN(C(C)C)C(C)C)cc1 [CBK106805] | 107% |
| Cc1onc(-c2ccccc2)c1NC(=O)Nc1cc2ccccc2c(Br)n1 [CBK105489] | 96.5% |
| Cc1ccc([N+](=O)[O-])cc1NC1OC(C(O)CO)C(O)C1O (stereo not drawn) [CBK262031] | 98% |
| COCCNc1ncnc2sc3c(c12)CCCC3 [CBK287583] | 98.4% |
| CSc1nc(O)c(C(c2cccc([N+](=O)[O-])c2)c2c(O)nc(SC)nc2O)c(O)n1 [CBK265370] | 80.5% |
| O=C(C1CC1)N1CCC(c2nc(Cc3cccs3)no2)C1 (stereo not drawn) [CBK282980] | 89.6% |
| O=C1CCCN1CCOc1nccnc1/C=C/c1ccccc1 [CBK106875] | 92.4% |
| CCNC(=O)C1(Cc2ccccc2-c2ccncc2)CCOCC1 [CBK285216] | 100% |
| NS(=O)(=O)c1cc(C(=O)OCCNC(=O)c2ccccc2)c(Cl)cc1Cl [CBK265193] | 88.9% |
| c1nnc(SCc2ccc(CSc3nnc[nH]3)cc2)[nH]1 [CBK263282] | 93.5% |
| COc1nc2ccn(CCN3C(=O)CCC3=O)c(=O)c2cc1C#N [CBK307422] | 94.7% |
| CCOC(=O)c1c(C)n(-c2ccc(C)cc2)c2ccc(Oc3ncccc3C#N)cc12 [CBK261310] | 109% |
| CC1CCCCC1NC(=O)CSc1nnc(CN2CCOCC2)n1C (stereo not drawn) [CBK266662] | 102% |
| NC(=O)c1c(NC(=O)Cn2ccc([N+](=O)[O-])n2)sc2c1CCCC2 [CBK269139] | 113% |
| O=C1NCC2(C/C=C/CCOc3ccccc31)CCNCC2 [CBK292178] | 104% |
| CCOC(=O)c1c(-c2ccc(OC)cc2)noc1C(O)c1ccccc1 (stereo not drawn) [CBK002296] | 90.6% |
